Measurements published in patent US20080051418A1, “Arylalkanoic Acid Derivative” (priority 2004, published 2008).

SMILES	melting point [°C]
CC(C)Oc1cc(Oc2ccc(C(F)(F)F)cn2)ccc1CCCOc1cc(CCC(=O)O)n(-c2ccccc2)n1 [Example 151, 3-{3-[3-(2-isopropoxy-4-{[5-(trifluoromethyl)pyridin-2-yl]oxy}phenyl)propoxy]-1-phenyl-1H-pyrazol-5-yl}propanoic acid]	129.5 to 130.5
CC(C)Oc1cc(Oc2ccc(C(F)(F)F)cn2)ccc1CCCOc1cc(CCC(=O)O)n(C)n1 [Example 152, 3-{3-[3-(2-isopropoxy-4-{[5-(trifluoromethyl)pyridin-2-yl]oxy}phenyl)propoxy]-1-methyl-1H-pyrazol-5-yl}propanoic acid]	128 to 130
COCCOc1cc(Oc2ccc(C(F)(F)F)cn2)ccc1CCCOc1cc(CCC(=O)O)n(-c2ccccc2)n1 [Example 153, 3-{3-[3-(2-(2-methoxyethoxy)-4-{[5-(trifluoromethyl)pyridin-2-yl]oxy}phenyl)propoxy]-1-phenyl-1H-pyrazol-5-yl}propanoic acid]	83 to 85
COCCOc1cc(Oc2ccc(C(F)(F)F)cn2)ccc1CCCOc1cc(CCC(=O)O)n(C)n1 [Example 154, 3-{3-[3-(2-(2-methoxyethoxy)-4-{[5-(trifluoromethyl)pyridin-2-yl]oxy}phenyl)propoxy]-1-methyl-1H-pyrazol-5-yl}propanoic acid]	109.5 to 110.5
CC(C)Oc1ccc(CCCCOc2cc(CCC(=O)O)n(C)n2)c(Oc2ncc(C(F)(F)F)cc2Cl)c1 [Example 155, 3-{3-[4-(2-{[3-chloro-5-(trifluoromethyl)pyridin-2-yl]oxy}-4-isopropoxyphenyl)butoxy]-1-methyl-1H-pyrazol-5-yl}propanoic acid]	156 to 157
CC(C)Cn1nc(OCCCCc2ccc(OC(C)C)cc2Oc2ncc(C(F)(F)F)cc2Cl)cc1CCC(=O)O [Example 157, 3-{3-[4-(2-{[3-chloro-5-(trifluoromethyl)pyridin-2-yl]oxy}-4-isopropoxyphenyl)butoxy]-1-isobutyl-1H-pyrazol-5-yl}propanoic acid]	122 to 123
CC(C)Oc1ccc(CCCCOc2cc(CCC(=O)O)n(C(C)C)n2)c(Oc2ncc(C(F)(F)F)cc2Cl)c1 [Example 159, 3-{3-[4-(2-{[3-chloro-5-(trifluoromethyl)pyridin-2-yl]oxy}-4-isopropoxyphenyl)butoxy]-1-isopropyl-1H-pyrazol-5-yl}propanoic acid]	99.5 to 100.5
CC(C)Oc1ccc(CCCOc2cc(CCC(=O)O)n(C)n2)c(OCc2ccc(Cl)cc2Cl)c1 [Example 161, 3-[3-(3-{2-[(2,4-dichlorobenzyl)oxy]-4-isopropoxyphenyl}propoxy) 1-methyl-1H-pyrazol-5-yl]propanoic acid]	125 to 127
CC(C)Cn1nc(OCCCc2ccc(OC(C)C)cc2OCc2ccc(Cl)cc2Cl)cc1CCC(=O)O [Example 162, 3-[3-(3-{2-[(2,4-dichlorobenzyl)oxy]-4-isopropoxyphenyl}propoxy) -1-isobutyl-1H-pyrazol-5-yl]propanoic acid]	133 to 134
CCn1nc(OCCCc2ccc(OC(C)C)cc2OCc2ccc(Cl)cc2Cl)cc1CCC(=O)O [Example 163, 3-[3-(3-{2-[(2,4-dichlorobenzyl)oxy]-4-isopropoxyphenyl}propoxy)-1-ethyl-1H-pyrazol-5-yl]propanoic acid]	110 to 111
COCCOc1ccc(CCCOc2cc(CCC(=O)O)n(C)n2)c(OCc2ccc(Cl)cc2Cl)c1 [Example 164, 3-(3-{3-[2-[(2,4-dichlorobenzyl)oxy]-4-(2-methoxyethoxy)phenyl]propoxy}-1-methyl-1H-pyrazol-5-yl)propanoic acid]	128.5 to 129.5
CCn1nc(OCCCc2ccc(OCCOC)cc2OCc2ccc(Cl)cc2Cl)cc1CCC(=O)O [Example 165, 3-(3-{3-{2-[(2,4-dichlorobenzyl)oxy]-4-(2-methoxyethoxy)phenyl}propoxy}-1-ethyl-1H-pyrazol-5-yl)propanoic acid]	114 to 116
CC(C)Oc1ccc(CCCOc2cc(CCC(=O)O)n(C)n2)c(OCc2ccc(C(F)(F)F)cc2)c1 [Example 167, 3-{3-[3-(4-isopropoxy-2-{[4-(trifluoromethyl)benzyl]oxy}phenyl)propoxy]-1-methyl-1H-pyrazol-5-yl}propanoic acid]	88 to 89
CCn1nc(OCCCc2ccc(OC(C)C)cc2OCc2ccc(C(F)(F)F)cc2)cc1CCC(=O)O [Example 168, 3-{1-ethyl-3-[3-(4-isopropoxy-2-{[4-(trifluoromethyl)benzyl]oxy}phenyl)propoxy]-1H-pyrazol-5-yl}propanoic acid]	75 to 76
COCCOc1ccc(CCCOc2cc(CCC(=O)O)n(C)n2)c(OCc2ccc(C(F)(F)F)cc2)c1 [Example 169, 3-{3-[3-(4-(2-methoxyethoxy)-2-{[4-(trifluoromethyl)benzyl]oxy}phenyl)propoxy]-1-methyl-1H-pyrazol-5-yl}propanoic acid]	110 to 111

More lines, now with the values ahead:

melting point [°C]	SMILES
112 to 113	CCn1nc(OCCCc2ccc(OCCOC)cc2OCc2ccc(C(F)(F)F)cc2)cc1CCC(=O)O [Example 170, 3-{1-ethyl-3-[3-(4-(2-methoxyethoxy)-2-{[4-(trifluoromethyl)benzyl]oxy}phenyl)propoxy]-1H-pyrazol-5-yl}propanoic acid]
60 to 62	CC(C)Oc1ccc(CCCOc2cc(CCC(=O)O)n(-c3ccccc3)n2)c(Oc2ccc(Cl)cc2Cl)n1 [Example 171, 3-(3-{3-[2-(2,4-dichlorophenoxy)-6-isopropoxypyridin-3-yl]propoxy}-1-phenyl-1H-pyrazol-5-yl)propanoic acid]
80 to 82	CC(C)Oc1ccc(CCCOc2cc(CCC(=O)O)n(-c3ccccc3)n2)c(Oc2ccc(C(F)(F)F)cn2)c1 [Example 172, 3-{3-[3-(4-isopropoxy-2-{[5-(trifluoromethyl)pyridin-2-yl]oxy}phenyl)propoxy]-1-phenyl-1H-pyrazol-5-yl}propanoic acid]
102 to 103	CC(C)Oc1ccc(CCCOc2nn(C)cc2CC(=O)O)c(OCc2ccc(Cl)cc2Cl)c1 [Example 174, [3-(3-{2-[(2,4-dichlorobenzyl)oxy]-4-isopropoxyphenyl}propoxy)-1-methyl-1H-pyrazol-4-yl]acetic acid]
103 to 104	CC(C)Oc1ccc(CCCOc2nn(Cc3ccccc3)cc2CC(=O)O)c(OCc2ccc(Cl)cc2Cl)c1 [Example 175, [1-benzyl-3-(3-{2-[(2,4-dichlorobenzyl)oxy]-4-isopropoxyphenyl}propoxy)-1H-pyrazol-4-yl]acetic acid]
84 to 85	CCOc1nn(Cc2ccc(Cl)cc2Cl)cc1CCCOc1cc(CCC(=O)O)n(Cc2ccccc2)n1 [Example 182, 3-(1-benzyl-3-{3-[1-(2,4-dichlorobenzyl)-3-ethoxy-1H-pyrazol-4-yl]propoxy}-1H-pyrazol-5-yl)propanoic acid]
132 to 133	CCOc1nn(Cc2ccc(Cl)cc2Cl)cc1CCCOc1cc(CCC(=O)O)n(-c2ccccc2)n1 [Example 183, 3-(3-{3-[1-(2,4-dichlorobenzyl)-3-ethoxy-1H-pyrazol-4-yl]propoxy}-1-phenyl-1H-pyrazol-5-yl)propanoic acid]
